Reference: patent EP2987533B1, “7-substituted piperazin-1-yl fluoroquinolone compounds, their use in the treatment of cancer, pharmaceutical compositions and a method for preparation” (priority 2014, dated 2016)

What was measured:
[1] = system: IGROV1; assay: NCI five-dose SRB growth assay; type: cell-based; conditions: Homo sapiens, IGROV-1; IGROV1 (Ovarian Cancer), 48 h
[2] = system: U251; assay: NCI five-dose SRB growth assay; type: cell-based; conditions: Homo sapiens, U-251; U251 (CNS Cancer), 48 h
[3] = system: colon cancer; assay: NCI five-dose SRB assay, subpanel average; conditions: 48 h; for GI50 / CC50: Homo sapiens; for GI50: read-out: GI50 (median growth inhibitory); for CC50: read-out: LC50 (median lethal); for TGI (total growth inhibitory): average over colon cancer subpanel, five concentrations
[4] = system: SK-MEL-28; assay: NCI five-dose SRB growth assay; type: cell-based; conditions: Homo sapiens; SK-MEL-28 (Melanoma), 48 h
[5] = system: ACHN; assay: NCI five-dose SRB growth assay; type: cell-based; conditions: Homo sapiens; ACHN (Renal Cancer), 48 h
[6] = system: OVCAR-4; assay: NCI five-dose SRB growth assay; type: cell-based; conditions: Homo sapiens; OVCAR-4 (Ovarian Cancer), 48 h
[7] = system: TK-10; assay: NCI five-dose SRB growth assay; type: cell-based; conditions: Homo sapiens; TK-10 (Renal Cancer), 48 h
[8] = system: SNB-75; assay: NCI five-dose SRB growth assay; type: cell-based; conditions: Homo sapiens; SNB-75 (CNS Cancer), 48 h
[9] = system: DU-145; assay: NCI five-dose SRB growth assay; type: cell-based; conditions: Homo sapiens; DU-145 (Prostate Cancer), 48 h
[10] = system: KM12; assay: NCI one-dose SRB growth assay; type: cell-based; conditions: Homo sapiens; KM12 (Colon Cancer), 10^-5 M, 48 h; read-out: % Growth Inhibition (GI %)
In short: (§1)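 Tumor cell cultures were treated with the compound at 10^-5M and kept for 48 h before sulforhodamine B endpoint measurement. Data represent growth of treated cells as a percentage of untreated controls.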

[11] = system: NCI/ADR-RES; assay: NCI one-dose SRB growth assay; type: cell-based; conditions: Homo sapiens; NCI/ADR-RES (Ovarian Cancer), 10^-5 M, 48 h; read-out: % Growth Inhibition (GI %)
In short: as §1

[12] = system: SNB-75; assay: NCI one-dose SRB growth assay; type: cell-based; conditions: Homo sapiens; SNB-75 (CNS Cancer), 10^-5 M, 48 h; read-out: % Growth Inhibition (GI %)
In short: as §1

[13] = system: A498; assay: NCI one-dose SRB growth assay; type: cell-based; conditions: Homo sapiens; A498 (Renal Cancer), 10^-5 M, 48 h; read-out: % Growth Inhibition (GI %)
In short: as §1

[14] = system: MALME-3M; assay: NCI one-dose SRB growth assay; type: cell-based; conditions: Homo sapiens; MALME-3M (Melanoma), 10^-5 M, 48 h; read-out: % Growth Inhibition (GI %)
In short: as §1

[15] = system: UACC-257; assay: NCI one-dose SRB growth assay; type: cell-based; conditions: Homo sapiens; UACC-257 (Melanoma), 10^-5 M, 48 h; read-out: % Growth Inhibition (GI %)
In short: as §1

[16] = system: MCF7; assay: NCI one-dose SRB growth assay; type: cell-based; conditions: Homo sapiens; MCF7 (Breast Cancer), 10^-5 M, 48 h; read-out: % Growth Inhibition (GI %)
In short: as §1

[17] = system: CCRF-CEM; assay: NCI one-dose SRB growth assay; type: cell-based; conditions: Homo sapiens; CCRF-CEM (Leukemia), 10^-5 M, 48 h; read-out: % Growth Inhibition (GI %)
[18] = system: RXF 393; assay: NCI one-dose SRB growth assay; type: cell-based; conditions: Homo sapiens; RXF 393 (Renal Cancer), 10^-5 M, 48 h; read-out: % Growth Inhibition (GI %)
In short: as §1

[19] = system: HOP-92; assay: NCI one-dose SRB growth assay; type: cell-based; conditions: Homo sapiens; HOP-92 (Non-Small Cell Lung Cancer), 10^-5 M, 48 h; read-out: % Growth Inhibition (GI %)
In short: as §1

[20] = system: K-562; assay: NCI one-dose SRB growth assay; type: cell-based; conditions: Homo sapiens, K562; K-562 (Leukemia), 10^-5 M, 48 h; read-out: % Growth Inhibition (GI %)
In short: as §1

[21] = system: COLO 205; assay: NCI one-dose SRB growth assay; type: cell-based; conditions: Homo sapiens; COLO 205 (Colon Cancer), 10^-5 M, 48 h; read-out: % Growth Inhibition (GI %)
In short: as §1

[22] = system: M14; assay: NCI one-dose SRB growth assay; type: cell-based; conditions: Homo sapiens; M14 (Melanoma), 10^-5 M, 48 h; read-out: % Growth Inhibition (GI %)
In short: as §1

[23] = system: PRMI-8226; assay: NCI one-dose SRB growth assay; type: cell-based; conditions: Homo sapiens; PRMI-8226 (Leukemia), 10^-5 M, 48 h; read-out: % Growth Inhibition (GI %)
In short: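 Growth percentage versus untreated controls was derived from SRB protein-dye absorbance after cells were incubated 48 h with test compound at a single 10^-5M dose.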

[24] = system: K-562; assay: NCI five-dose SRB growth assay; type: cell-based; conditions: Homo sapiens, K562; K-562 (Leukemia), 48 h
[25] = system: HS 578T; assay: NCI five-dose SRB growth assay; type: cell-based; conditions: Homo sapiens; HS 578T (Breast Cancer), 48 h
[26] = system: MOLT-4; assay: NCI five-dose SRB growth assay; type: cell-based; conditions: Homo sapiens; MOLT-4 (Leukemia), 48 h
[27] = system: full panel of about 60 human tumor cell lines; assay: NCI five-dose SRB assay, full panel mean; conditions: 48 h; for CC50 / GI50: Homo sapiens; for CC50: 60 cell, read-out: LC50 MG-MID (Full panel mean-graph midpoint); for GI50: read-out: GI50 MG-MID (Full panel mean-graph midpoint); for TGI MG-MID (Full panel mean-graph midpoint): five concentrations
[28] = system: SN12C; assay: NCI five-dose SRB growth assay; type: cell-based; conditions: Homo sapiens; SN12C (Renal Cancer), 48 h
[29] = system: ovarian cancer; assay: NCI five-dose SRB assay, subpanel average; conditions: 48 h; for GI50 / CC50: Homo sapiens; for GI50: read-out: GI50 (median growth inhibitory); for CC50: read-out: LC50 (median lethal); for TGI (total growth inhibitory): average over ovarian cancer subpanel, five concentrations

Compound | GI50 [1] | GI50 [2] | GI50 [3] | CC50 [3] | TGI (total growth inhibitory) [3] | GI50 [5] | GI50 [6] | GI50 [7] | GI50 [8] | GI50 [9] | inhibition at 10 µM [10] | inhibition at 10 µM [11] | inhibition at 10 µM [12] | inhibition at 10 µM [13] | inhibition at 10 µM [14] | inhibition at 10 µM [15] | inhibition at 10 µM [16] | inhibition at 10 µM [17] | inhibition at 10 µM [18] | inhibition at 10 µM [19] | other results
CCn1cc(C(=O)O)c(=O)c2cc(F)c(N3CCN(S(=O)(=O)c4ccc(Cl)cc4)CC3)cc21 [Compound 1a] | 3140 nM | 3.1 µM | 3.38 µM | 95.2 µM | 73.15 µM | 3090 nM | 2200 nM | 3.73 µM | 2600 nM | 4.11 µM | 95.7% | 31.3% | 58.2% | > 100% | 76.2% | 71% | 85.7% | > 100% | 86.6% | > 100% | GI50 [4]: 4.88 µM; inhibition at 10 µM [20]: 78.6%; inhibition at 10 µM [21]: 87.9%; inhibition at 10 µM [22]: 81.1%; inhibition at 10 µM [23]: 86.6%; GI50 [24]: 2.91 µM; GI50 [25]: 4520 nM; GI50 [26]: 3.83 µM; CC50 [27]: 95.5 µM; GI50 [27]: 2.95 µM; TGI MG-MID (Full panel mean-graph midpoint) [27]: 29.51 µM; GI50 [28]: 2920 nM; GI50 [29]: 3.16 µM; CC50 [29]: > 100 µM; TGI (total growth inhibitory) [29]: 54.29 µM
CCn1cc(C(=O)O)c(=O)c2cc(F)c(N3CCN(S(=O)(=O)c4cccc5ccccc45)CC3)cc21 [Compound 7a] | 2470 nM | 3.29 µM | 3.39 µM | 86.8 µM | 67.85 µM | 2880 nM | 2600 nM | 7.6 µM | 1890 nM | 3.97 µM | 88.3% | 78.7% | 85.9% | > 100% | > 100% | 86% | 85.4% | 87.9% | 71% | > 100% | GI50 [4]: 6.09 µM; inhibition at 10 µM [20]: 84.6%; inhibition at 10 µM [21]: > 100%; inhibition at 10 µM [22]: 82.1%; inhibition at 10 µM [23]: 93.5%; GI50 [24]: 3.93 µM; GI50 [25]: 2680 nM; GI50 [26]: 4.46 µM; CC50 [27]: 95.5 µM; GI50 [27]: 3.09 µM; TGI MG-MID (Full panel mean-graph midpoint) [27]: 29.51 µM; GI50 [28]: 2590 nM; GI50 [29]: 3.07 µM; CC50 [29]: > 100 µM; TGI (total growth inhibitory) [29]: 62.35 µM
Cc1cc(C)c(S(=O)(=O)N2CCN(c3cc4c(cc3F)c(=O)c(C(=O)O)cn4C3CC3)CC2)c(C)c1 [Compound 6b] | 2660 nM | 2.89 µM | 3.46 µM | > 100 µM | c (Compounds showed values > 100µM) | 2460 nM | 2370 nM | 4.57 µM | 2230 nM | 3.4 µM | 39.3% | 30.1% | 63.4% | 37% | 40.3% | 13.1% | 46% | 62.7% | 48.7% | 53.1% | inhibition at 10 µM [20]: 36.5%; inhibition at 10 µM [21]: 42.4%; inhibition at 10 µM [22]: 36.5%; inhibition at 10 µM [23]: 77.7%; GI50 [25]: 2400 nM; CC50 [27]: > 100 µM; GI50 [27]: 3.01 µM; TGI MG-MID (Full panel mean-graph midpoint) [27]: 89.12 µM; GI50 [28]: 2610 nM; GI50 [29]: 2.89 µM; CC50 [29]: > 100 µM; TGI (total growth inhibitory) [29]: c (Compounds showed values > 100µM)
